Assay results: PubChem BioAssay (NCI)
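Assay format: 96-well plates, 48-hour exposure. GI50 is the concentration that inhibits growth by half. TGI: concentration producing complete growth inhibition.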

How the values were obtained:
Experiment in all cases: growth of human tumour cells (NCI), 48 h
HOP-92 NSCLC = test system: HOP-92 NSCLC
NCI-H460 lung = test system: NCI-H460 lung
NCI-H226 lung = test system: NCI-H226 lung
KM12 colon = test system: KM12 colon
SNB-19 CNS = test system: SNB-19 CNS
MDA-MB-435 = test system: MDA-MB-435
MCF7 breast = test system: MCF7 breast
HS 578T breast = test system: HS 578T breast
MDA-MB-231 breast = test system: MDA-MB-231 breast
MDA-N = test system: MDA-N
A498 renal = test system: A498 renal
SN12C renal = test system: SN12C renal
OVCAR-4 ovarian = test system: OVCAR-4 ovarian
SF-295 CNS = test system: SF-295 CNS
SW-620 colon = test system: SW-620 colon
SNB-75 CNS = test system: SNB-75 CNS
DU-145 prostate = test system: DU-145 prostate
OVCAR-3 ovarian = test system: OVCAR-3 ovarian
OVCAR-8 ovarian = test system: OVCAR-8 ovarian
OVCAR-5 ovarian = test system: OVCAR-5 ovarian
SK-MEL-5 melanoma = test system: SK-MEL-5 melanoma
M14 melanoma = test system: M14 melanoma
HCT-15 colon = test system: HCT-15 colon
HOP-62 NSCLC = test system: HOP-62 NSCLC
NCI-H522 lung = test system: NCI-H522 lung
MALME-3M melanoma = test system: MALME-3M melanoma
U251 CNS = test system: U251 CNS
CCRF-CEM leukemia = test system: CCRF-CEM leukemia
TK-10 renal = test system: TK-10 renal
EKVX NSCLC = test system: EKVX NSCLC
CAKI-1 renal = test system: CAKI-1 renal
COLO 205 colon = test system: COLO 205 colon
UACC-62 melanoma = test system: UACC-62 melanoma
ACHN renal = test system: ACHN renal
RPMI-8226 leukemia = test system: RPMI-8226 leukemia
SK-MEL-2 melanoma = test system: SK-MEL-2 melanoma
UACC-257 melanoma = test system: UACC-257 melanoma
NCI/ADR-RES ovarian = test system: NCI/ADR-RES ovarian
HCT-116 colon = test system: HCT-116 colon
HT29 colon = test system: HT29 colon
SF-539 CNS = test system: SF-539 CNS
HCC-2998 colon = test system: HCC-2998 colon
MOLT-4 leukemia = test system: MOLT-4 leukemia
SK-MEL-28 melanoma = test system: SK-MEL-28 melanoma
A549 NSCLC = test system: A549 NSCLC
SK-OV-3 ovarian = test system: SK-OV-3 ovarian
UO-31 renal = test system: UO-31 renal
NCI-H23 lung = test system: NCI-H23 lung
786-0 renal = test system: 786-0 renal
IGROV1 ovarian = test system: IGROV1 ovarian
K-562 leukemia = test system: K-562 leukemia
SF-268 CNS = test system: SF-268 CNS
LOX IMVI melanoma = test system: LOX IMVI melanoma
T-47D breast = test system: T-47D breast
BT-549 breast = test system: BT-549 breast
RXF 393 renal = test system: RXF 393 renal
PC-3 prostate = test system: PC-3 prostate
HL-60(TB) leukemia = test system: HL-60(TB) leukemia

S=C(NCc1ccccc1)Nc1sc(=NCc2ccccc2)nc2sc3c(c12)CCN(N1CCc2c(sc4nc(=NCc5ccccc5)sc(NC(=S)NCc5ccccc5)c24)C1)C3
TGI (HOP-92 NSCLC): > 100 µM
TGI (NCI-H460 lung): > 83.9 µM
TGI (NCI-H226 lung): 99.7 µM
TGI (KM12 colon): > 67.5 µM
TGI (SNB-19 CNS): > 64.2 µM
TGI (MDA-MB-435): > 100 µM
TGI (MCF7 breast): > 62.2 µM
TGI (HS 578T breast): > 100 µM
TGI (MDA-MB-231 breast): > 44 µM
TGI (MDA-N): > 58.2 µM
TGI (A498 renal): > 67.6 µM
TGI (SN12C renal): > 52.8 µM
TGI (OVCAR-4 ovarian): > 91 µM
TGI (SF-295 CNS): > 100 µM
TGI (SW-620 colon): > 72.5 µM
TGI (SNB-75 CNS): > 64.9 µM
TGI (DU-145 prostate): > 90.8 µM
TGI (OVCAR-3 ovarian): > 100 µM
TGI (OVCAR-8 ovarian): > 100 µM
TGI (OVCAR-5 ovarian): > 85.2 µM
TGI (SK-MEL-5 melanoma): > 100 µM
TGI (M14 melanoma): > 65.4 µM
TGI (HCT-15 colon): > 66.7 µM
TGI (HOP-62 NSCLC): > 100 µM
TGI (NCI-H522 lung): > 100 µM
TGI (MALME-3M melanoma): > 100 µM
TGI (U251 CNS): > 47.5 µM
TGI (CCRF-CEM leukemia): > 70.2 µM
TGI (TK-10 renal): > 90.3 µM
TGI (EKVX NSCLC): > 64.1 µM
TGI (CAKI-1 renal): > 75.9 µM
TGI (COLO 205 colon): > 100 µM
TGI (UACC-62 melanoma): > 75.2 µM
TGI (ACHN renal): > 96.4 µM
TGI (RPMI-8226 leukemia): > 100 µM
TGI (SK-MEL-2 melanoma): > 81.8 µM
TGI (UACC-257 melanoma): > 78.4 µM
TGI (NCI/ADR-RES ovarian): > 100 µM
TGI (HCT-116 colon): > 54.2 µM
TGI (HT29 colon): 43.3 µM
TGI (SF-539 CNS): > 45.9 µM
TGI (HCC-2998 colon): > 62 µM
TGI (MOLT-4 leukemia): > 96.1 µM
TGI (SK-MEL-28 melanoma): > 79 µM
TGI (A549 NSCLC): > 62.9 µM
TGI (SK-OV-3 ovarian): 99.6 µM
TGI (UO-31 renal): > 60.8 µM
TGI (NCI-H23 lung): > 83.4 µM
TGI (786-0 renal): > 40.9 µM
TGI (IGROV1 ovarian): > 100 µM
TGI (K-562 leukemia): > 100 µM
TGI (SF-268 CNS): > 100 µM
TGI (LOX IMVI melanoma): > 100 µM
TGI (T-47D breast): > 61.3 µM
TGI (BT-549 breast): > 85.6 µM
TGI (RXF 393 renal): > 65.9 µM
TGI (PC-3 prostate): > 49.8 µM
TGI (HL-60(TB) leukemia): 42.4 µM

O=c1cc(-c2ccc(F)cc2)[nH]c2ncccc12
TGI (HOP-92 NSCLC): > 100 µM
GI50 (NCI-H460 lung): 34.7 µM
TGI (NCI-H460 lung): > 100 µM
TGI (NCI-H226 lung): > 100 µM
TGI (KM12 colon): > 100 µM
TGI (SNB-19 CNS): > 100 µM
GI50 (MDA-MB-435): 12 µM
TGI (MDA-MB-435): 33 µM
TGI (MCF7 breast): > 100 µM
TGI (HS 578T breast): > 100 µM
TGI (MDA-MB-231 breast): > 100 µM
GI50 (MDA-N): 14.1 µM
TGI (MDA-N): 35.9 µM
TGI (A498 renal): > 100 µM
TGI (SN12C renal): > 100 µM
TGI (OVCAR-4 ovarian): > 100 µM
GI50 (SF-295 CNS): 50 µM
TGI (SF-295 CNS): > 100 µM
TGI (SW-620 colon): > 100 µM
TGI (SNB-75 CNS): 81.1 µM
TGI (DU-145 prostate): > 100 µM
GI50 (OVCAR-3 ovarian): 45.5 µM
TGI (OVCAR-3 ovarian): > 100 µM
TGI (OVCAR-8 ovarian): > 100 µM
TGI (OVCAR-5 ovarian): > 100 µM
GI50 (SK-MEL-5 melanoma): 30.3 µM
TGI (SK-MEL-5 melanoma): > 100 µM
TGI (M14 melanoma): > 100 µM
TGI (HCT-15 colon): > 100 µM
TGI (HOP-62 NSCLC): > 100 µM
TGI (NCI-H522 lung): > 100 µM
TGI (MALME-3M melanoma): > 100 µM
GI50 (U251 CNS): 48.2 µM
TGI (U251 CNS): > 100 µM
TGI (CCRF-CEM leukemia): > 100 µM
TGI (TK-10 renal): > 100 µM
TGI (EKVX NSCLC): > 100 µM
TGI (CAKI-1 renal): > 100 µM
TGI (COLO 205 colon): 60.3 µM
TGI (UACC-62 melanoma): > 100 µM
TGI (ACHN renal): > 100 µM
TGI (RPMI-8226 leukemia): > 100 µM
TGI (SK-MEL-2 melanoma): > 100 µM
TGI (UACC-257 melanoma): > 100 µM
TGI (NCI/ADR-RES ovarian): > 100 µM
GI50 (HCT-116 colon): 42.9 µM
TGI (HCT-116 colon): > 100 µM
TGI (HT29 colon): > 100 µM
TGI (SF-539 CNS): > 100 µM
TGI (HCC-2998 colon): > 100 µM
TGI (MOLT-4 leukemia): > 100 µM
TGI (SK-MEL-28 melanoma): > 100 µM
TGI (A549 NSCLC): > 100 µM
TGI (SK-OV-3 ovarian): > 100 µM
TGI (UO-31 renal): > 100 µM
TGI (NCI-H23 lung): > 100 µM
GI50 (786-0 renal): 44.3 µM
TGI (786-0 renal): > 100 µM
TGI (IGROV1 ovarian): > 100 µM
TGI (K-562 leukemia): > 100 µM
TGI (SF-268 CNS): > 100 µM
TGI (LOX IMVI melanoma): > 100 µM
TGI (T-47D breast): > 100 µM
TGI (BT-549 breast): > 100 µM
GI50 (PC-3 prostate): 46.1 µM
TGI (PC-3 prostate): > 100 µM
GI50 (HL-60(TB) leukemia): 12.9 µM
TGI (HL-60(TB) leukemia): 34.1 µM
